According to patent US20240398805A1, “QUINAZOLINE DERIVED COMPOUNDS AS EGFR INHIBITORS AND THEIR USES THEREOF” (ACCUTAR BIOTECHNOLOGY INC., priority 2021, published 2024):

Tests used:
Format in all cases: cell-based
HCC827 cells = assay: Cell growth inhibition (CellTiter-Glo, 3 days) in HCC827; settings: Homo sapiens, 72 h, 3 days after administration
Method in brief: (§1)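 HCC827 cells were plated at 5000 cells/well in RPMI with 10% FBS, and A431 cells at the same density in DMEM with 10% FBS. After overnight attachment, compounds were added at various concentrations. Luminescence was recorded after plates were equilibrated to room temperature and incubated 10 min with reagent.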

[1] = system: HCC827-SVD cells (human EGFR exon 20 insertion mutant D770_N771 insSVD); assay: Cell growth inhibition (CellTiter-Glo, 3 days) in HCC827-SVD; settings: 72 h, 3 days after administration
Method in brief: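 HCC827 cells carrying lentiviral codon-optimized EGFR D770_N771 insSVD, with endogenous EGFR knocked out by CRISPR (single clone), seeded at 5000 cells/well in RPMI with 10% FBS. Viability read by CellTiter-Glo luminescence.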

[2] = system: HCC827-ASV cells (human EGFR exon 20 insertion mutant A769_D770insASV); assay: Cell growth inhibition (CellTiter-Glo, 3 days) in HCC827-ASV; settings: 72 h, 3 days after administration
Method in brief: (§2)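 HCC827 cells lentivirally transduced with codon-optimized ASV or YVMA insertion mutants were seeded at 5000 cells/well in RPMI with 10% FBS and incubated overnight. Compound was added at various concentrations from a 10× stock in medium, with 3 days' incubation. Viability read by CellTiter-Glo luminescence.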

[3] = system: HCC827-YVMA cells (human ERBB2 exon20 insertion mutant A775_G776ins YVMA); assay: Cell growth inhibition (CellTiter-Glo, 3 days) in HCC827-YVMA; settings: 72 h, 3 days after administration
Method in brief: as §2

A431 cells = assay: Cell growth inhibition (CellTiter-Glo, 3 days) in A431; settings: Homo sapiens, A-431, 72 h, 3 days after administration
Method in brief: as §1

Compound	GI50 (HCC827 cells)	GI50 [1]	GI50 [2]	GI50 [3]	GI50 (A431 cells)
C=CC(=O)N1CCC(Nc2cc3c(Nc4ccc(Oc5ccnc(N6C[C@@H]7OCCO[C@@H]7C6)c5)cc4F)ncnc3cc2OC)CC1 [Example 254, 1-(4-((4-((2-fluoro-4-((2-((4aR,7aS)-hexahydro-6H-[1,4]dioxino[2,3-c]pyrrol-6-yl)pyridin-4-yl)oxy)phenyl)amino)-7-methoxyquinazolin-6-yl)amino)piperidin-1-yl)prop-2-en-1-one]	0.06 to 0.1 µM	< 0.03 µM	< 0.03 µM	< 0.03 µM	≥ 1 µM
C=CC(=O)N1CCC(Nc2cc3c(Nc4ccc(Oc5ccnc(N6C[C@@H](OC)[C@H](OC)C6)c5)cc4F)ncnc3cc2OC)CC1 [Example 255, 1-(4-((4-((4-((2-((3R,4R)-3,4-dimethoxypyrrolidin-1-yl)pyridin-4-yl)oxy)-2-fluorophenyl)amino)-7-methoxyquinazolin-6-yl)amino)piperidin-1-yl)prop-2-en-1-one]	0.3 to 0.6 µM	< 0.03 µM	< 0.03 µM	< 0.03 µM	≥ 1 µM
C=CC(=O)N1CCC(Nc2cc3c(Nc4ccc(Oc5ccnc(N6C[C@H](OC)[C@@H](OC)C6)c5)cc4F)ncnc3cc2OC)CC1 [Example 256, 1-(4-((4-((4-((2-((3S,4S)-3,4-dimethoxypyrrolidin-1-yl)pyridin-4-yl)oxy)-2-fluorophenyl)amino)-7-methoxyquinazolin-6-yl)amino)piperidin-1-yl)prop-2-en-1-one]	0.06 to 0.1 µM	< 0.03 µM	< 0.03 µM	< 0.03 µM	0.1 to 0.3 µM
C=CC(=O)N1CCC(Nc2cc3c(Nc4ccc(Oc5ccnc(N6C[C@@H]7OCCO[C@@H]7C6)n5)cc4F)ncnc3cc2OC)CC1 [Example 257, 1-(4-((4-((2-fluoro-4-((2-((4aR,7aS)-hexahydro-6H-[1,4]dioxino[2,3-c]pyrrol-6-yl)pyrimidin-4-yl)oxy)phenyl)amino)-7-methoxyquinazolin-6-yl)amino)piperidin-1-yl)prop-2-en-1-one]	0.06 to 0.1 µM	< 0.03 µM	< 0.03 µM	< 0.03 µM	0.6 to 1 µM
C=CC(=O)N1CCC(Nc2cc3c(Nc4ccc(Oc5ccnc(N6CC[C@@H](C#N)C6)c5)cc4F)ncnc3cc2OC)CC1 [Example 258, (R)-1-(4-(4-((6-((1-acryloylpiperidin-4-yl)amino)-7-methoxyquinazolin-4-yl)amino)-3-fluorophenoxy)pyridin-2-yl)pyrrolidine-3-carbonitrile]	0.06 to 0.1 µM	< 0.03 µM	< 0.03 µM	< 0.03 µM	0.6 to 1 µM
C=CC(=O)N1CCC(Nc2cc3c(Nc4ccc(Oc5ccnc(N6CC[C@H](C#N)C6)c5)cc4F)ncnc3cc2OC)CC1 [Example 259, (S)-1-(4-(4-((6-((1-acryloylpiperidin-4-yl)amino)-7-methoxyquinazolin-4-yl)amino)-3-fluorophenoxy)pyridin-2-yl)pyrrolidine-3-carbonitrile]	0.06 to 0.1 µM	< 0.03 µM	< 0.03 µM	< 0.03 µM	≥ 1 µM
C=CC(=O)N1CCC(Nc2cc3c(Nc4ccc(Oc5ccnc(N6CC(F)(F)C(F)(F)C6)c5)cc4F)ncnc3cc2OC)CC1 [Example 261, 1-(4-((4-((2-fluoro-4-((2-(3,3,4,4-tetrafluoropyrrolidin-1-yl)pyridin-4-yl)oxy)phenyl)amino)-7-methoxyquinazolin-6-yl)amino)piperidin-1-yl)prop-2-en-1-one]	0.1 to 0.3 µM	0.03 to 0.06 µM	0.03 to 0.06 µM	0.03 to 0.06 µM	0.6 to 1 µM
C=CC(=O)N1CCC(Nc2cc3c(Nc4ccc(Oc5ccnc(N6CCC(C)(C#N)C6)c5)cc4F)ncnc3cc2OC)CC1 (stereo not shown) [Example 262, 1-(4-(4-((6-((1-acryloylpiperidin-4-yl)amino)-7-methoxyquinazolin-4-yl)amino)-3-fluorophenoxy)pyridin-2-yl)-3-methylpyrrolidine-3-carbonitrile]	0.03 to 0.06 µM	< 0.03 µM	0.03 to 0.06 µM	0.03 to 0.06 µM	0.6 to 1 µM
C=CC(=O)N1CCC(Nc2cc3c(Nc4ccc(Oc5ccnc(N6C[C@@H](F)[C@@H](OC)C6)c5)cc4F)ncnc3cc2OC)CC1 [Example 263, 1-(4-((4-((2-fluoro-4-((2-((3R,4S)-3-fluoro-4-methoxypyrrolidin-1-yl)pyridin-4-yl)oxy)phenyl)amino)-7-methoxyquinazolin-6-yl)amino)piperidin-1-yl)prop-2-en-1-one]	0.1 to 0.3 µM	< 0.03 µM	< 0.03 µM	< 0.03 µM	0.6 to 1 µM
C=CC(=O)N1CCC(Nc2cc3c(Nc4ccc(Oc5ccnc(N6C[C@H](F)[C@@H](F)C6)c5)cc4F)ncnc3cc2OC)CC1 [Example 264, 1-(4-((4-((4-((2-((3S,4S)-3,4-difluoropyrrolidin-1-yl)pyridin-4-yl)oxy)-2-fluorophenyl)amino)-7-methoxyquinazolin-6-yl)amino)piperidin-1-yl)prop-2-en-1-one]	0.06 to 0.1 µM	< 0.03 µM	< 0.03 µM	< 0.03 µM	0.6 to 1 µM
C=CC(=O)N1CCC(Nc2cc3c(Nc4ccc(Oc5ccnc(N6CCC(C)(F)C6)c5)cc4F)ncnc3cc2OC)CC1 (stereo not shown) [Example 265, 1-(4-((4-((2-fluoro-4-((2-(3-fluoro-3-methylpyrrolidin-1-yl)pyridin-4-yl)oxy)phenyl)amino)-7-methoxyquinazolin-6-yl)amino)piperidin-1-yl)prop-2-en-1-one]	0.03 to 0.06 µM	< 0.03 µM	< 0.03 µM	< 0.03 µM	0.1 to 0.3 µM
